Measurements: patent US4668680A, “5-amino-6,8-difluoroquinolones as antibacterial agents” (Warner-Lambert Company, priority 1985, dated 1987)
≈ marks a conversion by molar mass, not a printed value. Where two headings read alike, the source gives them in different places.

Columns and labels:
Experiment in all cases: in vitro antibacterial activity, microtitration dilution method
Format in all cases: cell-based
[1] = test system: Enterobacter cloacae MA 2646; conditions: MA2646, read-out: Minimal Inhibitory Concentration MIC
Escherichia coli Vogel = conditions: read-out: Minimal Inhibitory Concentration MIC
From the text: (§1) The compounds of the invention display antibacterial activity as shown in the following table when tested by the microtitration dilution method as described in Heifetz, et al, Antimicr. Agents & Chemoth., 6, 124 (1974), which is incorporated herein by reference. […]

[2] = test system: Klebsiella pneumoniae MGH-2
From the text: as §1

Proteus rettgeri M 1771 = conditions: Providencia rettgeri
From the text: as §1

[3] = test system: Pseudomonas aeruginosa UI-18
From the text: as §1

[4] = test system: Staphylococcus aureus H 228
From the text: as §1

[5] = test system: Staphylococcus aureus UC-76
From the text: as §1

[6] = test system: Streptococcus faecalis MGH-2; conditions: Enterococcus faecalis
From the text: as §1

[7] = test system: Streptococcus pneumonia SV-1; conditions: Streptococcus pneumoniae
From the text: as §1

[8] = test system: Streptococcus pyogenes C-203
From the text: as §1

[9] = MGH2, Klebsiella pneumoniae MGH-2, read-out: Minimal Inhibitory Concentration MIC
[10] = M1771, Proteus rettgeri M 1771, read-out: Minimal Inhibitory Concentration MIC
[11] = UI18, Pseudomonas aeruginosa UI-18, read-out: Minimal Inhibitory Concentration MIC
[12] = H228, Staphylococcus aureus H 228, read-out: Minimal Inhibitory Concentration MIC
[13] = UC76, Staphylococcus aureus UC-76, read-out: Minimal Inhibitory Concentration MIC
[14] = MGH2, Streptococcus faecalis MGH-2, read-out: Minimal Inhibitory Concentration MIC
[15] = SV1, Streptococcus pneumonia SV-1, read-out: Minimal Inhibitory Concentration MIC
[16] = C203, Streptococcus pyogenes C-203, read-out: Minimal Inhibitory Concentration MIC

SMILES | MIC [1] | MIC (Escherichia coli Vogel) | MIC [2, 9] | MIC (Proteus rettgeri M 1771; [10]) | MIC [3, 11] | MIC [4, 12] | MIC [5, 13] | MIC [6, 14] | MIC [7, 15] | MIC [8, 16] | MIC ([2]; Klebsiella pneumoniae, MGH2, read-out: Minimal Inhibitory Concentration MIC) | MIC (Proteus rettgeri M 1771; M1771, read-out: Minimal Inhibitory Concentration MIC) | MIC ([3]; Pseudomonas aeruginosa, UI18, read-out: Minimal Inhibitory Concentration MIC) | MIC ([4]; Staphylococcus aureus, H228, read-out: Minimal Inhibitory Concentration MIC) | MIC ([5]; Staphylococcus aureus, UC76, read-out: Minimal Inhibitory Concentration MIC) | MIC ([6]; MGH2, read-out: Minimal Inhibitory Concentration MIC) | MIC ([7]; SV1, read-out: Minimal Inhibitory Concentration MIC) | MIC ([8]; Streptococcus pyogenes, C203, read-out: Minimal Inhibitory Concentration MIC)
Nc1c(F)c(N2CCNCC2)c(F)c2c1c(=O)c(C(=O)O)cn2C1CC1 [Ex. 1, 5-amino-1-cyclopropyl-6,8-difluoro-1,4-dihydro-4-oxo-7-(1-piperazinyl)-3-quinolinecarboxylic acid] | 0.013 µg/mL (≈ 0.0357 µM) | 0.013 µg/mL (≈ 0.0357 µM) | 0.025 µg/mL (≈ 0.0686 µM) | 0.05 µg/mL (≈ 0.137 µM) | 0.025 µg/mL (≈ 0.0686 µM) | 0.05 µg/mL (≈ 0.137 µM) | 0.013 µg/mL (≈ 0.0357 µM) | 0.05 µg/mL (≈ 0.137 µM) | 0.05 µg/mL (≈ 0.137 µM) | 0.2 µg/mL (≈ 0.549 µM) | – | – | – | – | – | – | – | –
O=C(O)c1cn(C2CC2)c2cc(N3CCNCC3)c(F)cc2c1=O [Ciprofloxacin, 1-cyclopropyl-6-fluoro-1,4-dihydro-4-oxo-7-piperazinyl-3-quinoline-carboxylic acid, reference compound] | – | 0.05 µg/mL (≈ 0.151 µM) | – | – | – | – | – | – | – | – | 0.1 µg/mL (≈ 0.302 µM) | 0.1 µg/mL (≈ 0.302 µM) | 0.4 µg/mL (≈ 1.21 µM) | 3.1 µg/mL (≈ 9.36 µM) | 0.2 µg/mL (≈ 0.604 µM) | 0.8 µg/mL (≈ 2.41 µM) | 1.6 µg/mL (≈ 4.83 µM) | 0.8 µg/mL (≈ 2.41 µM)
CN1CCN(c2c(F)c(N)c3c(=O)c(C(=O)O)cn(C4CC4)c3c2F)CC1 [Ex. 2, 5-Amino-1-cyclopropyl-6,8-difluoro-1,4-dihydro-7-(4-methyl-1-piperazinyl)-4-oxo-3-quinolinecarboxylic acid] | 0.013 µg/mL (≈ 0.0344 µM) | 0.013 µg/mL (≈ 0.0344 µM) | 0.013 µg/mL (≈ 0.0344 µM) | 0.05 µg/mL (≈ 0.132 µM) | 0.1 µg/mL (≈ 0.264 µM) | 0.05 µg/mL (≈ 0.132 µM) | 0.025 µg/mL (≈ 0.0661 µM) | 0.1 µg/mL (≈ 0.264 µM) | 0.2 µg/mL (≈ 0.529 µM) | 0.4 µg/mL (≈ 1.06 µM) | – | – | – | – | – | – | – | –
